The source of these data is patent publication US20220160488A1, “FUNCTIONALIZED PROSTHETIC INTERFACES FOR THE PREVENTION AND TREATMENT OF DENTAL CONDITIONS” (OPTIMED TECHNOLOGY, INC., priority 2019, published 2022).

In the experiment the test system is candida cultures. As to the kind of experiment: Heat-treated AmB placed on candida cultures, cleared zone. To be noted: heat-treated at various temperatures, examined after 24 h; n=2. In kind it is cell-based, Candida albicans. On the procedure:
FIG. 4 illustrates Candida albicans biomass assay: The antifungal properties of 3D printed PCL-PMMA was examined in a biomass assay a. To assess antifungal effects, 3D printed 1, 5 and 10 layered sample were incubated with C. albicans for 48 h and dry weight of their biofilm biomass was assessed. n=3, *p<0.05, T test. b. Electron microscopy of 1 (left), 5 (middle) and 10 (right) layered AmB containing PCL microspheres incorporated PMMA disc. c. AmB was heat-treated at various temperatures and placed on candida cultures and examined after 24 h for efficacy (left panel). Digital images were captured and the cleared zone was quantitated (right panel) n=2, *p<0.05, T test.

For `C[C@@H]1[C@H](O)[C@@H](C)/C=C/C=C/C=C/C=C/C=C/C=C/C=C/[C@H](O[C@@H]2O[C@H](C)[C@@H](O)[C@H](N)[C@@H]2O)C[C@@H]2O[C@](O)(C[C@@H](O)C[C@@H](O)[C@H](O)CC[C@@H](O)C[C@@H](O)CC(=O)O[C@H]1C)C[C@H](O)[C@H]2C(=O)O` [AmB, Amphotericin B], the “anti-fungal effects after direct heat treatment” value was “reduced anti-fungal effects”.
